Source: patent US20060141064A1, “Herbal formulation useful as local anesthetic” (priority 2004, published 2006)

Key:
[1] = test system: guinea pig; assay: Local anesthetic properties, guinea pig wheal method, topical application (Table 1); type: in vivo; design: key: a positive (+) response is recorded, showing no anesthetic activity; loss in sensation (−); settings: 2% w/w, n = 6
[2] = test system: guinea pig; assay: Local anesthetic properties, intradermal wheal method in guinea pigs, intradermal injection (Table 2); type: in vivo; settings: 2% w/w, n = 6
Experimental: Intra Dermal Wheal Method in Guinea Pigs:
The hairs on the back of guinea pigs were shaved. The normal response of the animal with a pinprick on both sides of the back was tested with 0.2 ml of the herbal formulations were injected intradermally on the left side and 0.2 ml of a normal saline (0.9%) was injected on the right side of the back. The sides were demarcated by ink. Six pinpricks were applied at interval of 2 to 3 s. Pinpricks were repeated after every 5 min. Animals showing no squeak response to all the six pinpricks were considered positive to anaesthetic effect.

Question: `CCN(CC)CC(=O)Nc1c(C)cccc1C` [Lignocaine] was tested. Which “Response at 0 minutes after topical application” value ([1]; 0 min) did it give?
Answer: +

Question: What about the “Response at 5 minutes after topical application” value ([1]; 5 min) of the same molecule?
Answer: +

Question: And the “Response at 10 minutes after topical application” value ([1]; 10 min)?
Answer: −

Question: And the “Response at 15 minutes after topical application” value ([1]; 15 min)?
Answer: −

Question: And the “Response at 20 minutes after topical application” value ([1]; 20 min)?
Answer: −

Question: And the “Response at 30 minutes after topical application” value ([1]; 30 min)?
Answer: −

Question: What about the “Response at 45 minutes after topical application” value ([1]; 45 min) of the same molecule?
Answer: −

Question: And the “Response at 60 minutes after topical application” value ([1]; 60 min)?
Answer: −

Question: And the “Response at 120 minutes after topical application” value ([1]; 120 min)?
Answer: −

Question: And the “Response at 0 minutes after intradermal injection” value ([2]; 0 min)?
Answer: +

Question: And the “Response at 5 minutes after intradermal injection” value ([2]; 5 min)?
Answer: −

Question: And the “Response at 10 minutes after intradermal injection” value ([2]; 10 min)?
Answer: −

Question: What about the “Response at 15 minutes after intradermal injection” value ([2]; 15 min) of the same molecule?
Answer: −

Question: What about the “Response at 20 minutes after intradermal injection” value ([2]; 20 min) of the same molecule?
Answer: −

Question: And the “Response at 30 minutes after intradermal injection” value ([2]; 30 min)?
Answer: −

Question: And the “Response at 45 minutes after intradermal injection” value ([2]; 45 min)?
Answer: −

Question: And the “Response at 60 minutes after intradermal injection” value ([2]; 60 min)?
Answer: −
